Assay results from ChEMBL document CHEMBL4130359, “Indazole-based ligands for estrogen-related receptor α as potential anti-diabetic agents” (Eur J Med Chem, 2017).

How the values were obtained:
[1] = biological target: Steroid hormone receptor ERR2 (Homo sapiens, UniProt O95718); assay: Antagonist activity at recombinant GST-tagged human ERRbeta LBD assessed as inhibition of fluorescein-labeled coactivator peptide recruitment preincubated with enzyme followed by coactivator addition by LanthaScreen TR-FRET assay
Sequence of Steroid hormone receptor ERR2 (O95718 whole entry, the tested form may be a part): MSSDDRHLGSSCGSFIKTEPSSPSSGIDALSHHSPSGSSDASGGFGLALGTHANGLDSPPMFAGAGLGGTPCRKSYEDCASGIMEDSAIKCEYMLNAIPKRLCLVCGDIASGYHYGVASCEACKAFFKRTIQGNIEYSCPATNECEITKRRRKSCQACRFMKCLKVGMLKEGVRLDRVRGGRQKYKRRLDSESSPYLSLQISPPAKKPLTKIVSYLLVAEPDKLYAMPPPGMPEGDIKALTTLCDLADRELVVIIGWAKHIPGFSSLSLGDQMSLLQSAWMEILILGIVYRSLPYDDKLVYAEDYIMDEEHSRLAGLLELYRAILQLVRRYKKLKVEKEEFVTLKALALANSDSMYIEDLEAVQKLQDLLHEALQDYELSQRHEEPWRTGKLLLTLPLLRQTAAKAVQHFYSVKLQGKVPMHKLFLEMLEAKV

Rattus norvegicus [2] = assay: Toxicity in […] chronic ob/ob model assessed as change in body weight at 10 mg/kg, po qd for 28 days measured on day 1 to 28 during compound dosing (reference value: 9.9 +/- 1.27 g); assay type: organism-based; conditions: in vivo, 672 h
Rattus norvegicus [3] = assay: Toxicity in […] model assessed as serum BUN level at 10 mg/kg, po qd for 31 days measured on day 32 (reference value: 28.3 +/- […]); assay type: organism-based; conditions: in vivo, 744 h
Rattus norvegicus [4] = assay: Toxicity in Zucker rat sub-chronic fa/fa prediabetic model assessed as heart weight at 10 mg/kg, po qd for 31 days measured on day 32 (reference value: 1.19 +/- 0.04 g); assay type: organism-based; conditions: in vivo, 744 h
Rattus norvegicus [5] = assay: Toxicity in […] model assessed as serum creatinine level at 10 mg/kg, po qd for 31 days measured on day 32 (reference value: 0.55 +/- 0.018 mg/dl); assay type: organism-based; conditions: in vivo, 744 h
Rattus norvegicus [6] = assay: Toxicity in Zucker rat sub-chronic fa/fa prediabetic model assessed as serum triglyceride level at 10 mg/kg, po qd for 31 days measured on day 32 (reference value: 1382 +/- 268 mg/dl); assay type: organism-based; conditions: in vivo, 744 h
Rattus norvegicus [7] = assay: Toxicity in […] chronic ob/ob model assessed as serum triglyceride level at 10 mg/kg, po qd for 31 days measured on day 32 (reference value: 329 +/- 36 mg/dl); assay type: organism-based; conditions: in vivo, 744 h
Rattus norvegicus [8] = assay: Toxicity in Zucker rat sub-chronic fa/fa prediabetic model assessed as body weight at 10 mg/kg, po qd for 29 days measured on day 29 post last dose (reference value: 533 +/- 10 g); assay type: organism-based; conditions: in vivo, 696 h
Rattus norvegicus [9] = assay: Toxicity in Zucker rat sub-chronic fa/fa prediabetic model assessed as liver weight at 10 mg/kg, po qd for 31 days measured on day 32 (reference value: 28 +/- 1.6 g); assay type: organism-based; conditions: in vivo, 744 h
Rattus norvegicus [10] = assay: Toxicity in […] model assessed as serum cholesterol level at 10 mg/kg, po qd for 31 days measured on day 32 (reference value: 195 +/- 5.5 mg/dl); assay type: organism-based; conditions: in vivo, 744 h
Rattus norvegicus [11] = assay: Toxicity in Zucker rat sub-chronic fa/fa prediabetic model assessed as brown adipose tissue weight at 10 mg/kg, po qd for 31 days measured on day 32 (reference value: 2.1 +/- 0.3 g); assay type: organism-based; conditions: in vivo, 744 h
Rattus norvegicus [12] = assay: Toxicity in Zucker rat sub-chronic fa/fa prediabetic model assessed as triglyceride level per gram liver at 10 mg/kg, po qd for 31 days measured on day 32 (reference value: 163.4 +/- 8.3 mg); assay type: organism-based; conditions: in vivo, 744 h
Rattus norvegicus [13] = assay: Toxicity in Zucker rat sub-chronic fa/fa prediabetic model assessed as change in body weight at 10 mg/kg, po qd for 29 days measured on day 1 to 29 during compound dosing (reference value: 140 +/- 7 g); assay type: organism-based; conditions: in vivo, 696 h
Rattus norvegicus [14] = assay: Toxicity in […] chronic ob/ob model assessed as epididymal white adipose tissue weight at 10 mg/kg, po qd for 31 days measured on day 32 (reference value: 3.92 +/- 0.14 g); assay type: organism-based; conditions: in vivo, 744 h
Rattus norvegicus [15] = assay: Toxicity in […] chronic ob/ob model assessed as food intake at 10 mg/kg, po qd for 28 days measured on day 1 to 28 during compound dosing (reference value: 170.6 +/- 3 g); assay type: organism-based; conditions: in vivo, 672 h
Rattus norvegicus [16] = assay: Toxicity in Zucker rat sub-chronic fa/fa prediabetic model assessed as serum cholesterol level at 10 mg/kg, po qd for 31 days measured on day 32 (reference value: 295 +/- 91 mg/dl); assay type: organism-based; conditions: in vivo, 744 h
Rattus norvegicus [17] = assay: Antidiabetic activity in […] chronic ob/ob model assessed as increase in plasma adiponectin level at 10 mg/kg, po qd for 31 days measured on day 32 by ELISA relative to control; assay type: functional
Rattus norvegicus [18] = assay: Toxicity in […] model assessed as serum AST level at 10 mg/kg, po qd for 31 days measured on day 32 (reference value: 180 +/- 26 U/L); assay type: organism-based; conditions: in vivo, 744 h
Rattus norvegicus [19] = assay: Toxicity in Zucker rat sub-chronic fa/fa prediabetic model assessed as food intake at 10 mg/kg, po qd for 29 days measured on day 1 to 29 during compound dosing (reference value: 969 +/- 18 g); assay type: organism-based; conditions: in vivo, 696 h
Rattus norvegicus [20] = assay: Toxicity in Zucker rat sub-chronic fa/fa prediabetic model assessed as serum creatinine level at 10 mg/kg, po qd for 31 days measured on day 32 (reference value: 0.71 +/- 0.07 mg/dl); assay type: organism-based; conditions: in vivo, 744 h
Rattus norvegicus [21] = assay: Toxicity in […] chronic ob/ob model assessed as body weight at 10 mg/kg, po qd for 28 days measured on day 28 post last dose (reference value: 47.3 +/- 1.06 g); assay type: organism-based; conditions: in vivo, 672 h
Rattus norvegicus [22] = assay: Toxicity in Zucker rat sub-chronic fa/fa prediabetic model assessed as epididymal white adipose tissue weight at 10 mg/kg, po qd for 31 days measured on day 32 (reference value: 13.9 +/- 0.6 g); assay type: organism-based; conditions: in vivo, 744 h
Rattus norvegicus [23] = assay: Toxicity in Zucker rat sub-chronic fa/fa prediabetic model assessed as serum AST level at 10 mg/kg, po qd for 31 days measured on day 32 (reference value: 187 +/- 37 U/L); assay type: organism-based; conditions: in vivo, 744 h
Rattus norvegicus [24] = assay: Toxicity in […] chronic ob/ob model assessed as brown adipose tissue weight at 10 mg/kg, po qd for 31 days measured on day 32 (reference value: 0.59 +/- 0.05 g); assay type: organism-based; conditions: in vivo, 744 h
Rattus norvegicus [25] = assay: Toxicity in […] model assessed as serum ALT level at 10 mg/kg, po qd for 31 days measured on day 32 (reference value: 127 +/- 9 U/L); assay type: organism-based; conditions: in vivo, 744 h
Rattus norvegicus [26] = assay: Toxicity in Zucker rat sub-chronic fa/fa prediabetic model assessed as serum ALT level at 10 mg/kg, po qd for 31 days measured on day 32 (reference value: 151 +/- 23 U/L); assay type: organism-based; conditions: in vivo, 744 h
Rattus norvegicus [27] = assay: Toxicity in Zucker rat sub-chronic fa/fa prediabetic model assessed as insulin level per gram pancreas at 10 mg/kg, po qd for 31 days measured on day 32 (reference value: 55.2 +/- 5.5 ug); assay type: organism-based; conditions: in vivo, 744 h
Rattus norvegicus [28] = assay: Toxicity in […] model assessed as liver weight at 10 mg/kg, po qd for 31 days measured on day 32 (reference value: 2.77 +/- 0.16 g); assay type: organism-based; conditions: in vivo, 744 h
Rattus norvegicus [29] = assay: Toxicity in Zucker rat sub-chronic fa/fa prediabetic model assessed as serum BUN level at 10 mg/kg, po qd for 31 days measured on day 32 (reference value: 28.3 +/- […]); assay type: organism-based; conditions: in vivo, 744 h
Rattus norvegicus [30] = assay: Decrease in fed plasma free fatty acid level in Zucker rat sub-chronic fa/fa prediabetic model at 10 mg/kg, po qd for 4 days measured on day 5 relative to control; assay type: functional; set-up: scale not given: the % may be the effect or the level left
Rattus norvegicus [31] = assay: Toxicity in Zucker rat sub-chronic fa/fa prediabetic model assessed as increase in body weight at 10 mg/kg, po qd for 4 days; assay type: organism-based; conditions: in vivo, 96 h
[32] = biological target: T1, Steroid hormone receptor ERR1 (Homo sapiens, UniProt P11474); assay: Antagonist activity at His6-tagged ERRalpha LBD (unknown origin) assessed as inhibition of GST-tagged SRC-2 co-activator peptide recruitment after 18 hrs by TR-FRET assay
T1 sequence (P11474 whole entry): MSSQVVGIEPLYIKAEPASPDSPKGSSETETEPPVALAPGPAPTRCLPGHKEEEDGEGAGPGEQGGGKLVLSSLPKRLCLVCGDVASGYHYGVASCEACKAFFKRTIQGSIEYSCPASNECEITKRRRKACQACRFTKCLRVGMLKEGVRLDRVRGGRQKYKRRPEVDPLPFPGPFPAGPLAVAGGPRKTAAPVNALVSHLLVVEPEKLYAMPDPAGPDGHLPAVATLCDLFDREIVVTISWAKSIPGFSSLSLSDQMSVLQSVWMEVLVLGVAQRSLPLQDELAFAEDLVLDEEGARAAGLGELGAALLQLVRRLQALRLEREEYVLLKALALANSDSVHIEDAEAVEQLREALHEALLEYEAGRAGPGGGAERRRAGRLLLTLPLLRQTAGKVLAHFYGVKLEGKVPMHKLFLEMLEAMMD

Rattus norvegicus [33] = assay: Decrease in fed plasma insulin level in Zucker rat sub-chronic fa/fa prediabetic model assessed as change in plasma insulin level at 10 mg/kg, po qd for 4 days measured on day 5 relative to control; assay type: functional; set-up: scale not given: the % may be the effect or the level left
Cytochrome P450 2C9 = Cytochrome P450 2C9 (Homo sapiens, UniProt P11712); assay: Inhibition of CYP2C9 (unknown origin) in microsomes; assay type: ADME
Sequence of Cytochrome P450 2C9 (P11712 whole entry): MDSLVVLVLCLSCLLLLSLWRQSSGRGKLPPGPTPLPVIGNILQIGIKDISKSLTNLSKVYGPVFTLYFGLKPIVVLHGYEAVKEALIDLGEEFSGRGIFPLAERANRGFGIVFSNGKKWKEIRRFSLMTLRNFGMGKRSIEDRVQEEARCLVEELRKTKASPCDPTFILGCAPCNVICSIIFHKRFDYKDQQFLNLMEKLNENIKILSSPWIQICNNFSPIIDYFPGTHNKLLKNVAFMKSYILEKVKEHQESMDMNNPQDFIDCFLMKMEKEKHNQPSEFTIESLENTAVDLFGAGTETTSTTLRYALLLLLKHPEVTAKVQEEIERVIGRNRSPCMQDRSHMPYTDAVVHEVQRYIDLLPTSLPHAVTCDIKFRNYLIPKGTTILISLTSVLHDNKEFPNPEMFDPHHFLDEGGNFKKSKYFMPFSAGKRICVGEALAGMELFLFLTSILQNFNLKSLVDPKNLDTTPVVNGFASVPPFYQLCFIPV

Cytochrome P450 2C19 = Cytochrome P450 2C19 (Homo sapiens, UniProt P33261); assay: Inhibition of CYP2C19 (unknown origin) in microsomes; assay type: ADME
Sequence of Cytochrome P450 2C19 (P33261 whole entry): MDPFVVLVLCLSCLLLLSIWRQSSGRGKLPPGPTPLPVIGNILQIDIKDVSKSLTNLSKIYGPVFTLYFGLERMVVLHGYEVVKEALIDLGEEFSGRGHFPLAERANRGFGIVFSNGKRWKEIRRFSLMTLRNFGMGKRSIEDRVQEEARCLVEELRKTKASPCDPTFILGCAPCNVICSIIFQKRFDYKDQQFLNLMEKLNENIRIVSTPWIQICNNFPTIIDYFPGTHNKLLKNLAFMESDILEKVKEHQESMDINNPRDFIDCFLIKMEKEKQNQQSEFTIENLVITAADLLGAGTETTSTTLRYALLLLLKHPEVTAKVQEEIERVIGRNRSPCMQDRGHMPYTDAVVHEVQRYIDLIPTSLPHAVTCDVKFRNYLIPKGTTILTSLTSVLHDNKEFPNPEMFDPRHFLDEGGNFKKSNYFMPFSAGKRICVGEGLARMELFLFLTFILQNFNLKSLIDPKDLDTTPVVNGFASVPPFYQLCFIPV

Rattus norvegicus [34] = assay: Decrease in fed plasma glucose level in Zucker rat sub-chronic fa/fa prediabetic model at 10 mg/kg, po qd for 4 days measured on day 5 relative to control; assay type: functional; set-up: scale not given: the % may be the effect or the level left
Rattus norvegicus [35] = assay: Decrease in fed plasma triglyceride level in Zucker rat sub-chronic fa/fa prediabetic model assessed as change in plasma triglyceride level at 10 mg/kg, po qd for 4 days measured on day 5 relative to control; assay type: functional; set-up: scale not given: the % may be the effect or the level left
[36] = biological target: Voltage-gated inwardly rectifying potassium channel KCNH2 (Homo sapiens, UniProt Q12809); assay: Displacement of [3H]astemizole from human ERG; conditions: human
Sequence of Voltage-gated inwardly rectifying potassium channel KCNH2 (Q12809 whole entry): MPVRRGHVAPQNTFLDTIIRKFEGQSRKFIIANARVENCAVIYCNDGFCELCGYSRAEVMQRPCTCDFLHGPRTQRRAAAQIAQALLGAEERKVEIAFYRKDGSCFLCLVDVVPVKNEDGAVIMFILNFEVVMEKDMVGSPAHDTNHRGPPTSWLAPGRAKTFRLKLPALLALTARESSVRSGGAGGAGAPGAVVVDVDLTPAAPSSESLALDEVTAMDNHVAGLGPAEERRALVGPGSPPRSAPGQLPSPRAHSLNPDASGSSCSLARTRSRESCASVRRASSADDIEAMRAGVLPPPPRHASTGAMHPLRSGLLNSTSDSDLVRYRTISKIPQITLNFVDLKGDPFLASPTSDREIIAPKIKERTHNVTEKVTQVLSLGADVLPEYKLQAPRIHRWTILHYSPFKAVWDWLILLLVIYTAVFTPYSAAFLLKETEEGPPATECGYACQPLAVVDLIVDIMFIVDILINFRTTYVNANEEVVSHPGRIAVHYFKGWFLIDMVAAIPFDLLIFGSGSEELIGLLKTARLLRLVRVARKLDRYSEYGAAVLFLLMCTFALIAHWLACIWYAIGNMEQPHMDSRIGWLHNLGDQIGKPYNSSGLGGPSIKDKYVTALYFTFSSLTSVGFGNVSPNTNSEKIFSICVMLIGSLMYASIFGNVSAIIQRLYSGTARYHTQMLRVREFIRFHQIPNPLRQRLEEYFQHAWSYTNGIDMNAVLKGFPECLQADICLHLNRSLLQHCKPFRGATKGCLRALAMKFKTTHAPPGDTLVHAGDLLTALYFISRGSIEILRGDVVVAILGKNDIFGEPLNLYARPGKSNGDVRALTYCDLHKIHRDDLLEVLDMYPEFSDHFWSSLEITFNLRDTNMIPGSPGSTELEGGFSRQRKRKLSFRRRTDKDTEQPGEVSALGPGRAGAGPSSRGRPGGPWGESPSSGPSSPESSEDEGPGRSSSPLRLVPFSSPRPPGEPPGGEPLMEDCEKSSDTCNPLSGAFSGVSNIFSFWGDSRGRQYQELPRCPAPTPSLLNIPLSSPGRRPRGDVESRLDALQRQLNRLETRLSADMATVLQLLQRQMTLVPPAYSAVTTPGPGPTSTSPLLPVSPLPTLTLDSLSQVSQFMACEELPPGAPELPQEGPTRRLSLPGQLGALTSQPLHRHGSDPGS

Cytochrome P450 3A4 = Cytochrome P450 3A4 (Homo sapiens, UniProt P08684); assay: Inhibition of CYP3A4 (unknown origin) in microsomes; assay type: ADME
Sequence of Cytochrome P450 3A4 (P08684 whole entry): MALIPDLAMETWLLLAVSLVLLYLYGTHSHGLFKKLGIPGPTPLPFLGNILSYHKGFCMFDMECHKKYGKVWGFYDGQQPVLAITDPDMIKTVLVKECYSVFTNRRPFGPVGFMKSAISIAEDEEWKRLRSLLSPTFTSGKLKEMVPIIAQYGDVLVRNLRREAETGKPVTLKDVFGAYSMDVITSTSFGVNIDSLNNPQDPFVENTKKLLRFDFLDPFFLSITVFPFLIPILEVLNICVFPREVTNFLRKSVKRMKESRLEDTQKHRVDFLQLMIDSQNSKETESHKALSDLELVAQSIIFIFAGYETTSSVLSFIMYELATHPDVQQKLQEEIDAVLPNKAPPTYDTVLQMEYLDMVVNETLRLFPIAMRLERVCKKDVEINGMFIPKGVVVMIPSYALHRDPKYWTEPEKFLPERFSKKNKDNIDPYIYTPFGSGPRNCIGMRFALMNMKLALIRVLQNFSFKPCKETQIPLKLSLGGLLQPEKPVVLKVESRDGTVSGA

Rattus norvegicus [37] = assay: Toxicity in Zucker rat sub-chronic fa/fa prediabetic model assessed as effect on liver enzymes at 10 mg/kg, po qd during 10 days study; assay type: organism-based; conditions: in vivo, 240 h
Rattus norvegicus [38] = assay: Antidiabetic activity in Zucker rat sub-chronic fa/fa prediabetic model assessed as decrease in plasma glucose AUC (0 to 120 mins) at 10 mg/kg, po qd during 10 days study by OGTT relative to control; assay type: functional; set-up: scale not given: the % may be the effect or the level left
Rattus norvegicus [39] = assay: Toxicity in Zucker rat sub-chronic fa/fa prediabetic model assessed as increase in body weight at 10 mg/kg, po qd during 10 days study; assay type: organism-based; conditions: in vivo, 240 h
Rattus norvegicus [40] = assay: Toxicity in Zucker rat sub-chronic fa/fa prediabetic model assessed as increase in food consumption at 10 mg/kg, po qd during 10 days study; assay type: organism-based; conditions: in vivo, 240 h

## CCC(=C(c1ccc(O)cc1)c1ccc(OCCN(C)C)cc1)c1ccccc1
[1]
  IC50: 886 nM

## CN(CCOc1ccc(CC2SC(=O)NC2=O)cc1)c1ccccn1 (configuration not stated) [ROSIGLITAZONE]
Rattus norvegicus [2]
  Activity: 13 g
Rattus norvegicus [3]
  Activity: 33.1 mg/dL
Rattus norvegicus [4]
  Activity: 1.37 g
Rattus norvegicus [5]
  Activity: 0.41 mg/dL
Rattus norvegicus [6]
  Activity: 195 mg/dL
Rattus norvegicus [7]
  Activity: 77 mg/dL
Rattus norvegicus [8]
  Activity: 617 g
Rattus norvegicus [9]
  Activity: 20.9 g
Rattus norvegicus [10]
  Activity: 184 mg/dL
Rattus norvegicus [11]
  Activity: 7.6 g
Rattus norvegicus [12]
  Activity: 102.5 mg
Rattus norvegicus [13]
  Activity: 213 g
Rattus norvegicus [14]
  Activity: 3.32 g
Rattus norvegicus [15]
  Activity: 157.3 g
Rattus norvegicus [16]
  Activity: 141 mg/dL
Rattus norvegicus [17]
  fold change (FC): 2.6
Rattus norvegicus [18]
  Activity: 364 U/L
Rattus norvegicus [19]
  Activity: 1248 g
Rattus norvegicus [20]
  Activity: 0.54 mg/dL
Rattus norvegicus [21]
  Activity: 50.5 g
Rattus norvegicus [22]
  Activity: 22.7 g
Rattus norvegicus [23]
  Activity: 147 U/L
Rattus norvegicus [24]
  Activity: 1.26 g
Rattus norvegicus [25]
  Activity: 366 U/L
Rattus norvegicus [26]
  Activity: 136 U/L
Rattus norvegicus [27]
  Activity: 90.7 µg
Rattus norvegicus [28]
  Activity: 3.93 g
Rattus norvegicus [29]
  Activity: 27.2 mg/dL

## CN1CC[C@H](N2C(=O)S/C(=C\c3ccc4c(cnn4Cc4ccc(Cl)cc4C(F)(F)F)c3)C2=O)[C@H](F)C1 (relative stereo)
Rattus norvegicus [30]
  Activity: -35%
Rattus norvegicus [31]
  Activity: Non-Toxic
[32]
  IC50: 45 nM
Rattus norvegicus [33]
  Activity: -73%
Cytochrome P450 2C9
  inhibition (INH): Not Active
Cytochrome P450 2C19
  inhibition (INH): Not Active
Rattus norvegicus [34]
  Activity: -43%
Rattus norvegicus [35]
  Activity: -57%
[36]
  inhibition (INH): Not Active
Cytochrome P450 3A4
  inhibition (INH): Not Active

## CN1CC[C@H](N2C(=O)S/C(=C\c3ccc4c(cnn4Cc4ccc(Cl)cc4C(F)(F)F)c3)C2=O)[C@@H](F)C1
Rattus norvegicus [37]
  Activity: Toxic
[32]
  IC50: 22 nM
Rattus norvegicus [33]
  Activity: -52%
Rattus norvegicus [38]
  Activity: -37%
Rattus norvegicus [39]
  Activity: Toxic
Rattus norvegicus [40]
  Activity: Toxic
Rattus norvegicus [34]
  Activity: -27%
Rattus norvegicus [35]
  Activity: -51%
